Source: ChEMBL document CHEMBL1201862, “PubChem BioAssay data set” (2004)
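Interpolation was linear, between the two tested concentrations surrounding the appropriate level; five concentrations were tested over 48 hours in 96-well plates. GI50 = concentration required for 50% inhibition of growth.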 Active and inactive are the calls of the source. No stated cut-off is given here; in the data, active = GI50 up to about 1.1 µM and inactive = higher.

How the values were obtained:
Test in all cases: NCI tumour cell line growth inhibition, 48 h
BT-549 = test system: BT-549
NCI-H522 = test system: NCI-H522
KM12 = test system: KM12
OVCAR-5 = test system: OVCAR-5
NCI-H23 = test system: NCI-H23
SN12C = test system: SN12C
OVCAR-4 = test system: OVCAR-4
EKVX = test system: EKVX
SK-MEL-28 = test system: SK-MEL-28
MCF7 = test system: MCF7
SW-620 = test system: SW-620
RPMI-8226 = test system: RPMI-8226
OVCAR-8 = test system: OVCAR-8
LOX IMVI = test system: LOX IMVI
ACHN = test system: ACHN
COLO 205 = test system: COLO 205
UACC-257 = test system: UACC-257
UO-31 = test system: UO-31
MDA-N = test system: MDA-N
A498 = test system: A498
U-251 = test system: U-251
SR = test system: SR
MDA-MB-231 = test system: MDA-MB-231
DU-145 = test system: DU-145
HCC 2998 = test system: HCC 2998
Malme-3M = test system: Malme-3M
SNB-19 = test system: SNB-19
HT-29 = test system: HT-29
PC-3 = test system: PC-3
CAKI-1 = test system: CAKI-1
MDA-MB-435 = test system: MDA-MB-435
M14 = test system: M14
786-0 = test system: 786-0
SK-MEL-5 = test system: SK-MEL-5
CCRF-CEM = test system: CCRF-CEM
SF-295 = test system: SF-295
SNB-75 = test system: SNB-75
NCI-H226 = test system: NCI-H226
HCT-116 = test system: HCT-116
HOP-62 = test system: HOP-62
HOP-92 = test system: HOP-92
A549 = test system: A549
OVCAR-3 = test system: OVCAR-3
SF-268 = test system: SF-268
SK-OV-3 = test system: SK-OV-3
SK-MEL-2 = test system: SK-MEL-2
IGROV-1 = test system: IGROV-1
NCI/ADR-RES = test system: NCI/ADR-RES
Hs-578T = test system: Hs-578T
UACC-62 = test system: UACC-62
HL-60 = test system: HL-60
K562 = test system: K562
TK-10 = test system: TK-10
SF-539 = test system: SF-539
HCT-15 = test system: HCT-15
RXF 393 = test system: RXF 393
MOLT-4 = test system: MOLT-4
NCI-H460 = test system: NCI-H460
T47D = test system: T47D

Measured: GI50

Nc1ccc(-c2nc3ccccc3s2)cc1Cl
active: OVCAR-5 0.0259 µM | MCF7 < 0.01 µM | A498 0.223 µM | NCI-H226 0.571 µM | OVCAR-3 < 0.01 µM | IGROV-1 < 0.01 µM | TK-10 < 0.01 µM
inactive: BT-549 > 66.4 µM | NCI-H522 98.6 µM | KM12 40.3 µM | NCI-H23 69.3 µM | SN12C > 100 µM | OVCAR-4 > 100 µM | EKVX 25.2 µM | SK-MEL-28 > 100 µM | SW-620 > 100 µM | RPMI-8226 36.1 µM | OVCAR-8 > 100 µM | LOX IMVI 46.8 µM | ACHN > 100 µM | COLO 205 > 56.2 µM | UACC-257 > 100 µM | UO-31 23.3 µM | MDA-N > 100 µM | U-251 58.2 µM | SR > 100 µM | MDA-MB-231 > 92.9 µM | DU-145 > 100 µM | HCC 2998 > 64.3 µM | Malme-3M > 100 µM | SNB-19 > 70.8 µM | HT-29 > 100 µM | PC-3 > 73.6 µM | CAKI-1 > 93.3 µM | MDA-MB-435 > 100 µM | M14 > 100 µM | 786-0 74 µM | SK-MEL-5 > 87.3 µM | CCRF-CEM 10.2 µM | SF-295 53.5 µM | SNB-75 16.6 µM | HCT-116 > 100 µM | HOP-62 18.8 µM | HOP-92 > 44.5 µM | A549 > 87.1 µM | SF-268 67 µM | SK-OV-3 > 73.8 µM | SK-MEL-2 > 100 µM | NCI/ADR-RES > 100 µM | Hs-578T 56 µM | UACC-62 > 100 µM | HL-60 > 92.3 µM | K562 66.7 µM | SF-539 77.6 µM | RXF 393 > 39.8 µM | MOLT-4 16.3 µM
> 48.8 µM: HCT-15

CCN(CC)c1ccc(/C=C/C(=O)c2cc(C(C)(C)C)c(O)c(C(C)(C)C)c2)cc1
21.1 µM: HCT-15
inactive: BT-549 8.24 µM | NCI-H522 3.07 µM | KM12 2.99 µM | OVCAR-5 5.26 µM | NCI-H23 9.77 µM | SN12C 27.4 µM | OVCAR-4 6.76 µM | EKVX 4.13 µM | SK-MEL-28 > 50.7 µM | MCF7 3.64 µM | SW-620 4.84 µM | RPMI-8226 4.94 µM | OVCAR-8 15.9 µM | LOX IMVI 5.78 µM | ACHN > 42.6 µM | COLO 205 4.62 µM | UACC-257 6.85 µM | UO-31 17.6 µM | MDA-N 3.14 µM | A498 31.3 µM | U-251 3.3 µM | SR 2.8 µM | MDA-MB-231 9.2 µM | DU-145 29 µM | HCC 2998 16.3 µM | Malme-3M > 100 µM | SNB-19 38 µM | HT-29 2.71 µM | PC-3 9.18 µM | CAKI-1 5.14 µM | MDA-MB-435 3.21 µM | M14 21.2 µM | 786-0 14.2 µM | SK-MEL-5 16.3 µM | CCRF-CEM 3.85 µM | SF-295 2.6 µM | SNB-75 4.9 µM | NCI-H226 39.3 µM | HCT-116 3.21 µM | HOP-62 27 µM | HOP-92 > 100 µM | A549 19.6 µM | OVCAR-3 10.2 µM | SF-268 7.45 µM | SK-OV-3 28.2 µM | SK-MEL-2 6.76 µM | IGROV-1 64 µM | NCI/ADR-RES 4.38 µM | NCI-H460 14.9 µM | Hs-578T 5.93 µM | UACC-62 6.81 µM | HL-60 3.37 µM | K562 8.45 µM | TK-10 5.71 µM | SF-539 3.19 µM | RXF 393 2.7 µM | MOLT-4 4.49 µM

CC1(C)O[C@@H](CP(c2ccc3ccccc3c2)c2ccc3ccccc3c2)[C@H](CP(c2ccc3ccccc3c2)c2ccc3ccccc3c2)O1
inactive: BT-549 > 100 µM | NCI-H522 25.5 µM | KM12 70.1 µM | OVCAR-5 > 100 µM | NCI-H23 > 100 µM | SN12C > 100 µM | OVCAR-4 > 100 µM | EKVX > 100 µM | SK-MEL-28 > 100 µM | MCF7 72.3 µM | SW-620 > 100 µM | OVCAR-8 > 100 µM | LOX IMVI > 100 µM | ACHN > 100 µM | COLO 205 > 100 µM | UACC-257 > 100 µM | UO-31 > 100 µM | MDA-N > 100 µM | U-251 > 100 µM | SR 77.8 µM | MDA-MB-231 > 100 µM | DU-145 > 100 µM | HCC 2998 > 100 µM | SNB-19 > 100 µM | HT-29 85.5 µM | PC-3 53.5 µM | CAKI-1 > 100 µM | MDA-MB-435 > 100 µM | M14 > 100 µM | 786-0 > 100 µM | SK-MEL-5 73.5 µM | CCRF-CEM > 100 µM | SF-295 > 100 µM | SNB-75 > 100 µM | NCI-H226 72.6 µM | HCT-116 > 100 µM | HOP-62 > 100 µM | A549 > 100 µM | OVCAR-3 58.9 µM | SF-268 > 100 µM | SK-OV-3 > 100 µM | SK-MEL-2 > 100 µM | IGROV-1 33 µM | NCI/ADR-RES > 100 µM | NCI-H460 > 100 µM | UACC-62 > 100 µM | K562 77.1 µM | TK-10 > 100 µM | RXF 393 > 100 µM | MOLT-4 78.9 µM | T47D 78.2 µM
> 100 µM: HCT-15

CC1CC/C(=C\c2ccc(N(C)C)cc2)C(=O)/C1=C/c1ccc(N(C)C)cc1 (stereo not given)
> 100 µM: HCT-15
active: Malme-3M 0.228 µM
inactive: BT-549 > 100 µM | NCI-H522 > 100 µM | KM12 > 100 µM | OVCAR-5 > 100 µM | NCI-H23 > 100 µM | SN12C > 100 µM | OVCAR-4 > 100 µM | EKVX > 100 µM | SK-MEL-28 > 100 µM | MCF7 > 100 µM | SW-620 > 100 µM | OVCAR-8 > 100 µM | LOX IMVI > 100 µM | ACHN > 100 µM | COLO 205 > 100 µM | UACC-257 > 100 µM | UO-31 > 100 µM | MDA-N > 100 µM | A498 > 100 µM | U-251 > 100 µM | SR > 100 µM | MDA-MB-231 > 100 µM | HCC 2998 > 100 µM | HT-29 > 100 µM | PC-3 > 100 µM | CAKI-1 > 100 µM | MDA-MB-435 > 100 µM | M14 > 100 µM | 786-0 > 100 µM | SK-MEL-5 > 100 µM | CCRF-CEM > 100 µM | SF-295 > 100 µM | SNB-75 > 100 µM | NCI-H226 > 100 µM | HCT-116 > 100 µM | HOP-62 > 100 µM | A549 > 100 µM | OVCAR-3 > 100 µM | SK-OV-3 > 100 µM | SK-MEL-2 > 100 µM | IGROV-1 > 100 µM | NCI/ADR-RES > 100 µM | UACC-62 > 100 µM | K562 > 100 µM | TK-10 > 100 µM | SF-539 > 100 µM | MOLT-4 > 100 µM | T47D > 100 µM

CC(O)CCCCC(O)CCC[C@H](O)[C@H]1CCC([C@H]2CCC([C@@H](O)CCCCCCCCCCCCC3=C[C@H](C)OC3=O)O2)O1 (stereo not given in full)
inactive: BT-549 11.2 µM | NCI-H522 7.64 µM | KM12 5.48 µM | OVCAR-5 11.4 µM | NCI-H23 8.65 µM | SN12C 12.2 µM | OVCAR-4 12.6 µM | EKVX 8.15 µM | SK-MEL-28 13.5 µM | MCF7 5.25 µM | SW-620 12.8 µM | OVCAR-8 10.1 µM | ACHN 10.2 µM | COLO 205 11.1 µM | UACC-257 9.33 µM | UO-31 9.44 µM | MDA-N 10.6 µM | U-251 10.8 µM | MDA-MB-231 10.4 µM | DU-145 12 µM | HCC 2998 13.2 µM | SNB-19 10.3 µM | HT-29 10.7 µM | PC-3 10.7 µM | CAKI-1 9.84 µM | MDA-MB-435 9.18 µM | M14 11.4 µM | 786-0 14.4 µM | SK-MEL-5 7.93 µM | CCRF-CEM 9.38 µM | SF-295 9.29 µM | SNB-75 9.12 µM | NCI-H226 9.59 µM | HOP-62 10.6 µM | HOP-92 11.4 µM | A549 7.94 µM | OVCAR-3 9.51 µM | SF-268 11.6 µM | SK-OV-3 11.7 µM | SK-MEL-2 8.77 µM | IGROV-1 10.5 µM | NCI/ADR-RES 2.44 µM | NCI-H460 8.22 µM | Hs-578T 12.3 µM | UACC-62 10.9 µM | HL-60 9.79 µM | TK-10 9.48 µM | SF-539 10.4 µM | RXF 393 12.1 µM | MOLT-4 3.9 µM
14.7 µM: HCT-15
active: SR 0.0075 µM | HCT-116 0.0667 µM
